Measured values as given in BindingDB's records for doi:10.1021/jm00060a006 (Paris Diderot University, 1993).

What was measured:
[1] = Inhibition of PAF-induced rabbit platelet aggregation
[2] = Inhibition of [3H]PAF binding to rabbit platelet membrane

`COc1cc(C(=O)N2CCN(C(=O)c3cc(OC)c(OC)c(OC)c3)CC2)cc(OC)c1OC` gave an IC50 [1] of 1780 nM.

Compound `C[C@@H]1C(=O)O[C@H]2[C@H](O)[C@@]34[C@H]5C[C@@H](C(C)(C)C)[C@]36[C@@H](OC(=O)[C@@H]6O)O[C@@]4(C(=O)O5)[C@@]12O` has an IC50 [1] of 740 nM and an EC50 [2] of 180 nM.

With `COc1cc(N2CCN(c3cc(OC)c(OC)c(OC)c3)CC2)cc(OC)c1OC` [1,4-Bis-(3,4,5-trimethoxy-phenyl)-piperazine] the IC50 [1] was 12500 nM.

For `COc1cc(C(=O)N2CCN(C(=O)c3cc(OC)c(OC)c(OC)c3)C(COC(=O)C(C)(C)C)C2)cc(OC)c1OC` (stereo unspecified) [2,2-Dimethyl-propionic acid 1,4-bis-(3,4,5-trimethoxy-benzoyl)-piperazin-2-ylmethyl ester], the IC50 [1] was 100 nM and the EC50 [2] was 300 nM.

`COc1cc(C(=O)N2CCN(C(=O)c3cc(OC)c(OC)c(OC)c3)C(COC(=O)c3ccccc3Cl)C2)cc(OC)c1OC` (stereo unspecified) [2-Chloro-benzoic acid 1,4-bis-(3,4,5-trimethoxy-benzoyl)-piperazin-2-ylmethyl ester] gave an IC50 [1] of 170 nM and an EC50 [2] of 450 nM.

`CCC(CC)C(=O)OCC1CN(Cc2cc(OC)c(OC)c(OC)c2)CCN1Cc1cc(OC)c(OC)c(OC)c1` (stereo unspecified) [2-Ethyl-butyric acid 1,4-bis-(3,4,5-trimethoxy-benzyl)-piperazin-2-ylmethyl ester] showed an IC50 [1] of 2700 nM.

With `COc1cc(C(=O)N2CCN(C(=O)c3cc(OC)c(OC)c(OC)c3)C(COC(=O)CC(C)(C)C)C2)cc(OC)c1OC` (stereo unspecified) [3,3-Dimethyl-butyric acid 1,4-bis-(3,4,5-trimethoxy-benzoyl)-piperazin-2-ylmethyl ester] the IC50 [1] was 120 nM.

In the case of `CCC(C)(C)NC(=O)OCC1CN(C(=O)c2cc(OC)c(OC)c(OC)c2)CCN1C(=O)c1cc(OC)c(OC)c(OC)c1` (stereo unspecified) [(1,1-Dimethyl-propyl)-carbamic acid 1,4-bis-(3,4,5-trimethoxy-benzoyl)-piperazin-2-ylmethyl ester], the IC50 [1] is reported as 320 nM.

Compound `COc1cc(C(=O)N2CCN(C(=O)c3cc(OC)c(OC)c(OC)c3)C(COC(=O)NC(C)C(C)(C)C)C2)cc(OC)c1OC` (stereo unspecified) [(1,2,2-Trimethyl-propyl)-carbamic acid 1,4-bis-(3,4,5-trimethoxy-benzoyl)-piperazin-2-ylmethyl ester] has an IC50 [1] of 170 nM.

`COc1cc(C(=O)N2CCN(C(=O)c3cc(OC)c(OC)c(OC)c3)C(COC(=O)NC(C)C(C)C)C2)cc(OC)c1OC` (stereo unspecified) [(1,2-Dimethyl-propyl)-carbamic acid 1,4-bis-(3,4,5-trimethoxy-benzoyl)-piperazin-2-ylmethyl ester] showed an IC50 [1] of 80 nM and an EC50 [2] of 70 nM.

Compound `COc1cc(C(=O)N2CCN(C(=O)c3cc(OC)c(OC)c(OC)c3)C(COC(=O)NC(C)CC(C)C)C2)cc(OC)c1OC` (stereo unspecified) [(1,3-Dimethyl-butyl)-carbamic acid 1,4-bis-(3,4,5-trimethoxy-benzoyl)-piperazin-2-ylmethyl ester] has an IC50 [1] of 280 nM and an EC50 [2] of 180 nM.

Work on `CCCN(CCC)C(=O)OCC1CN(C(=O)c2cc(OC)c(OC)c(OC)c2)CCN1C(=O)c1cc(OC)c(OC)c(OC)c1` (stereo unspecified) [(1,4-bis(3,4,5-trimethoxybenzoyl)piperazin-2-yl)methyl dipropylcarbamate] yielded an IC50 [1] of 380 nM and an EC50 [2] of 680 nM.

Work on `CCC(CC)NC(=O)OCC1CN(C(=O)c2cc(OC)c(OC)c(OC)c2)CCN1C(=O)c1cc(OC)c(OC)c(OC)c1` (stereo unspecified) [(1-Ethyl-propyl)-carbamic acid 1,4-bis-(3,4,5-trimethoxy-benzoyl)-piperazin-2-ylmethyl ester] yielded an IC50 [1] of 130 nM.

`CCCC(C)NC(=O)OCC1CN(C(=O)c2cc(OC)c(OC)c(OC)c2)CCN1C(=O)c1cc(OC)c(OC)c(OC)c1` (stereo unspecified) [(1-Methyl-butyl)-carbamic acid 1,4-bis-(3,4,5-trimethoxy-benzoyl)-piperazin-2-ylmethyl ester] gave an IC50 [1] of 100 nM.

With `CCCCC(CC)CNC(=O)OCC1CN(C(=O)c2cc(OC)c(OC)c(OC)c2)CCN1C(=O)c1cc(OC)c(OC)c(OC)c1` (stereo unspecified) [(2-Ethyl-hexyl)-carbamic acid 1,4-bis-(3,4,5-trimethoxy-benzoyl)-piperazin-2-ylmethyl ester] the IC50 [1] was 3900 nM.

Work on `CCC(C)CNC(=O)OCC1CN(C(=O)c2cc(OC)c(OC)c(OC)c2)CCN1C(=O)c1cc(OC)c(OC)c(OC)c1` (stereo unspecified) [(2-Methyl-butyl)-carbamic acid 1,4-bis-(3,4,5-trimethoxy-benzoyl)-piperazin-2-ylmethyl ester] yielded an IC50 [1] of 470 nM.

For `COc1cc(NC(=O)OCC2CN(C(=O)c3cc(OC)c(OC)c(OC)c3)CCN2C(=O)c2cc(OC)c(OC)c(OC)c2)cc(OC)c1OC` (stereo unspecified) [(3,4,5-Trimethoxy-phenyl)-carbamic acid 1,4-bis-(3,4,5-trimethoxy-benzoyl)-piperazin-2-ylmethyl ester], the IC50 [1] was 13800 nM.

For `COc1cc(C(=O)N2CCN(C(=O)c3cc(OC)c(OC)c(OC)c3)C(COC(=O)NCCC(C)C)C2)cc(OC)c1OC` (stereo unspecified) [(3-Methyl-butyl)-carbamic acid 1,4-bis-(3,4,5-trimethoxy-benzoyl)-piperazin-2-ylmethyl ester], the IC50 [1] was 140 nM.

In the case of `COc1cc(C(=O)N2CCN(C(=O)c3cc(OC)c(OC)c(OC)c3)C(COC(=O)COc3ccc(Cl)cc3)C2)cc(OC)c1OC` (stereo unspecified) [(4-Chloro-phenoxy)-acetic acid 1,4-bis-(3,4,5-trimethoxy-benzoyl)-piperazin-2-ylmethyl ester], the IC50 [1] is reported as 5000 nM.

In the case of `COc1cc(C(=O)N2CCN(C(=O)c3cc(OC)c(OC)c(OC)c3)C(COC(=O)COc3ccc(F)cc3)C2)cc(OC)c1OC` (stereo unspecified) [(4-Fluoro-phenoxy)-acetic acid 1,4-bis-(3,4,5-trimethoxy-benzoyl)-piperazin-2-ylmethyl ester], the IC50 [1] is reported as 10300 nM.

With `COc1cc(C(=O)N2CCN(C(=O)c3cc(OC)c(OC)c(OC)c3)C(COC(C)=O)C2)cc(OC)c1OC` (stereo unspecified) [Acetic acid 1,4-bis-(3,4,5-trimethoxy-benzoyl)-piperazin-2-ylmethyl ester] the IC50 [1] was 430 nM and the EC50 [2] was 400 nM.

`CCCCNC(=O)OCC1CN(C(=O)c2cc(OC)c(OC)c(OC)c2)CCN1C(=O)c1cc(OC)c(OC)c(OC)c1` (stereo unspecified) [Butyl-carbamic acid 1,4-bis-(3,4,5-trimethoxy-benzoyl)-piperazin-2-ylmethyl ester] showed an IC50 [1] of 240 nM and an EC50 [2] of 700 nM.

`CCCC(=O)OCC1CN(C(=O)c2cc(OC)c(OC)c(OC)c2)CCN1C(=O)c1cc(OC)c(OC)c(OC)c1` (stereo unspecified) [Butyric acid 1,4-bis-(3,4,5-trimethoxy-benzoyl)-piperazin-2-ylmethyl ester] gave an IC50 [1] of 420 nM.

In the case of `COc1cc(C(=O)N2CCN(C(=O)c3cc(OC)c(OC)c(OC)c3)C(COC(=O)C3CCCCC3)C2)cc(OC)c1OC` (stereo unspecified) [Cyclohexanecarboxylic acid 1,4-bis-(3,4,5-trimethoxy-benzoyl)-piperazin-2-ylmethyl ester], the IC50 [1] is reported as 290 nM.

`CCCCCCCCCC(=O)OCC1CN(C(=O)c2cc(OC)c(OC)c(OC)c2)CCN1C(=O)c1cc(OC)c(OC)c(OC)c1` (stereo unspecified) [Decanoic acid 1,4-bis-(3,4,5-trimethoxy-benzoyl)-piperazin-2-ylmethyl ester] gave an IC50 [1] of 2820 nM.

In the case of `CCCCN(CCCC)C(=O)OCC1CN(C(=O)c2cc(OC)c(OC)c(OC)c2)CCN1C(=O)c1cc(OC)c(OC)c(OC)c1` (stereo unspecified) [Dibutyl-carbamic acid 1,4-bis-(3,4,5-trimethoxy-benzoyl)-piperazin-2-ylmethyl ester], the IC50 [1] is reported as 1250 nM.

For `CCN(CC)C(=O)OCC1CN(C(=O)c2cc(OC)c(OC)c(OC)c2)CCN1C(=O)c1cc(OC)c(OC)c(OC)c1` (stereo unspecified) [Diethyl-carbamic acid 1,4-bis-(3,4,5-trimethoxy-benzoyl)-piperazin-2-ylmethyl ester], the IC50 [1] was 25800 nM.

`CCCCCN(CCCCC)C(=O)OCC1CN(C(=O)c2cc(OC)c(OC)c(OC)c2)CCN1C(=O)c1cc(OC)c(OC)c(OC)c1` (stereo unspecified) [Dipentyl-carbamic acid 1,4-bis-(3,4,5-trimethoxy-benzoyl)-piperazin-2-ylmethyl ester] gave an IC50 [1] of 11400 nM.

For `CCCCCC(=O)OCC1CN(C(=O)c2cc(OC)c(OC)c(OC)c2)CCN1C(=O)c1cc(OC)c(OC)c(OC)c1` (stereo unspecified) [Hexanoic acid 1,4-bis-(3,4,5-trimethoxy-benzoyl)-piperazin-2-ylmethyl ester], the IC50 [1] was 290 nM.

With `CCCCCCCCCCCCCCCCCC(=O)OCC1CN(C(=O)c2cc(OC)c(OC)c(OC)c2)CCN1C(=O)c1cc(OC)c(OC)c(OC)c1` (stereo unspecified) [Octadecanoic acid 1,4-bis-(3,4,5-trimethoxy-benzoyl)-piperazin-2-ylmethyl ester] the IC50 [1] was 45000 nM.

Compound `CCCCCCCC(=O)OCC1CN(C(=O)c2cc(OC)c(OC)c(OC)c2)CCN1C(=O)c1cc(OC)c(OC)c(OC)c1` (stereo unspecified) [Octanoic acid 1,4-bis-(3,4,5-trimethoxy-benzoyl)-piperazin-2-ylmethyl ester] has an IC50 [1] of 310 nM.

`CCCCCCCCNC(=O)OCC1CN(C(=O)c2cc(OC)c(OC)c(OC)c2)CCN1C(=O)c1cc(OC)c(OC)c(OC)c1` (stereo unspecified) [Octyl-carbamic acid 1,4-bis-(3,4,5-trimethoxy-benzoyl)-piperazin-2-ylmethyl ester] gave an IC50 [1] of 370 nM.

In the case of `COc1cc(C(=O)N2CCN(C(=O)c3cc(OC)c(OC)c(OC)c3)C(COC(=O)NC(C)(C)C)C2)cc(OC)c1OC` (stereo unspecified) [tert-Butyl-carbamic acid 1,4-bis-(3,4,5-trimethoxy-benzoyl)-piperazin-2-ylmethyl ester], the IC50 [1] is reported as 130 nM.
